According to patent US20260256923A1, “NEW RECRUITMENT ELEMENT OF UBIQUITIN LIGASE AND USE THEREOF” (SHENZHEN LINGGENE BIOTECH CO., LTD., priority 2023, published 2026):

Key:
[1] = system: MCF 10A human normal mammary epithelial cells; assay: Toxicity to normal cells, cell apoptosis proportion by flow cytometer; assay type: cell-based; conditions: 0-5000 nM, 4 days, medium renewed every day
Procedure: The toxicity of AS1411 to normal cells was compared with that of the small molecule ligand nutlin-3a of MDM2 to normal cells. AS1411 or nutlin-3a at different concentrations (0 nM, 500 nM, 1000 nM, and 5000 nM) was incubated with MCF 10A human normal mammary epithelial cells for 4 days, and the medium containing the respective concentrations of AS1411 or nutlin-3a was renewed every day. The cell apoptosis proportion was detected using a flow cytometer.

[2] = target: T1, MDM2 (Homo sapiens, UniProt P19338+Q00987); assay: MDM2 protein degradation in A549 non-small cell lung cancer cells, western blot; assay type: cell-based
T1 construct: endogenous in cells; host or cells: A549
T1 sequence (Q00987 whole entry): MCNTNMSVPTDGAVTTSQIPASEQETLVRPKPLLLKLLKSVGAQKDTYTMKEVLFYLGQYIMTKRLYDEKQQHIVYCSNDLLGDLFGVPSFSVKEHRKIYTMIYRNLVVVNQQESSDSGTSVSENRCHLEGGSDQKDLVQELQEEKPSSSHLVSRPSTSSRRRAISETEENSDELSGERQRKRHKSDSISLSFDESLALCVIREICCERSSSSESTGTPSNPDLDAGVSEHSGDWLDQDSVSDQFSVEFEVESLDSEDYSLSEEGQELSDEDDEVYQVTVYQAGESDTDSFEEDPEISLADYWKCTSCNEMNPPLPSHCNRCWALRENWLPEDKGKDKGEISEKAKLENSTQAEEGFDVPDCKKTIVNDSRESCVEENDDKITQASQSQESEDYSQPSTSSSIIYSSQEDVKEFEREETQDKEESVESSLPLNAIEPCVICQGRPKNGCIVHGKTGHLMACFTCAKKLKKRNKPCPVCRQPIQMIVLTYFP
T1 sequence (P19338 2-710 limits assumed): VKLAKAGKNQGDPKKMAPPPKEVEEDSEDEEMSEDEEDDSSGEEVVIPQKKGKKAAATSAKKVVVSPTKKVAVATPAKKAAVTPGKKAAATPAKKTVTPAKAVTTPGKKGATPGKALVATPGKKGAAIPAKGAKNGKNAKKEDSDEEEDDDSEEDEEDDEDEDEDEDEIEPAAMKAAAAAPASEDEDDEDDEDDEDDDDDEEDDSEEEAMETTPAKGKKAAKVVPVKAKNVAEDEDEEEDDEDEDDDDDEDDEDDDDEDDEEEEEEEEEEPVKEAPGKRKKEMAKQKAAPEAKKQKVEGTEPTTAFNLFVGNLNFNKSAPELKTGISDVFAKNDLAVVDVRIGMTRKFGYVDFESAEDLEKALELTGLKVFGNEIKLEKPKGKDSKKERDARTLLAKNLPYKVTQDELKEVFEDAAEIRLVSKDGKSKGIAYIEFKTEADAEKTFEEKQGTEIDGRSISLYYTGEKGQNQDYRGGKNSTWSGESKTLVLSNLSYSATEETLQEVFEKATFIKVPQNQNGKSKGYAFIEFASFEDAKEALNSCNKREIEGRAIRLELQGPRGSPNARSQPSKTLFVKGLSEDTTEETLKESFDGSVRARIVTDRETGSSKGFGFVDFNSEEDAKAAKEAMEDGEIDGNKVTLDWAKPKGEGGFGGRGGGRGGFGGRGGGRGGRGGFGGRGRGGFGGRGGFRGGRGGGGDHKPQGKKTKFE
Procedure: (1) A549 non-small cell lung cancer cells were incubated with 200 nM AS1411-VH032, and corresponding cell samples were collected at time gradients of 0 h, 3 h, 6 h, 9 h, 12 h, and 24 h for protein extraction and subsequent western blot assay to detect protein degradation.
(2) A549 non-small cell lung cancer cells were incubated with AS1411-VH032 at concentrations of 0 nM, 50 nM, 100 nM, 150 nM, 200 nM, and 250 nM. After 3 h, cell samples were collected for protein extraction and subsequent western blot assay to detect protein degradation.
(3) A549 non-small cell lung cancer cells were incubated with 200 nM AS1411, VH032, AS1411-VH032, or AS1411+VH032. After 3 h, cell samples were collected for protein extraction and subsequent western blot assay to detect protein degradation.
(4) A549 non-small cell lung cancer cells were incubated with 200 nM AS1411-VH032 for 3 h, and proteasome inhibitor MG132 was added. Cell samples were collected for protein extraction and subsequent western blot assay.
(5) A549 non-small cell lung cancer cells were transfected with si-NC or si-NCL and subsequently incubated with 200 nM AS1411-VH032 for 3 h. Cell samples were collected for protein extraction and subsequent western blot assay.
(1) A549 non-small cell lung cancer cells were incubated with 1000 nM AS1411-AS1411, and corresponding cell samples were collected at time gradients of 0 h, 3 h, 6 h, 9 h, 12 h, and 24 h for protein extraction and subsequent western blot assay to detect protein degradation.
(2) A549 non-small cell lung cancer cells were incubated with AS1411-AS1411 at concentrations of 0 nM, 50 nM, 100 nM, 250 nM, 500 nM, and 1000 nM. After 12 h, cell samples were collected for protein extraction and subsequent western blot assay to detect protein degradation.
(3) A549 non-small cell lung cancer cells were incubated with 1000 nM AS1411, AS1411-AS1411, or AS1411+AS1411. After 12 h, cell samples were collected for protein extraction and subsequent western blot assay to detect protein degradation. […]

[3] = phase I and phase II clinical trials; cited from earlier work
[4] = target: MDM2 (Homo sapiens, UniProt Q00987); assay: Biotin-oligonucleotide pull-down from HeLa cell lysate, western blot (MDM2); assay type: binding; parameters: HeLa cervical cancer cells were lysed with an IP lysis solution; endogenous in cells; host or cells: HeLa; conditions: 5′-biotin label, 0 nM-20 μM
MDM2 (Homo sapiens, UniProt Q00987), sequence (P19338 2-710 partner limits assumed): as the sequence (P19338 2-710 limits assumed) above
MDM2 (Homo sapiens, UniProt Q00987), sequence (Q00987 whole entry): as the sequence (Q00987 whole entry) above
Procedure: HeLa cervical cancer cells were lysed with an IP lysis solution (purchased from Thermo Scientific, Cat. No.: 87788) and then incubated with a CRO (cytosine-rich oligonucleotide, negative control, SEQ ID NO: 13), AS1411, or iSN04 labeled by biotin at the 5′ end at different concentrations (0 nM, 200 nM, 500 nM, 1 μM, 5 μM, 10 μM, and 20 μM) at 4° C. for 6h. Subsequently, streptavidin agarose gel beads (purchased from cytiva, Cat. No.: 17511301) were added, and the mixture was further incubated at 4° C. overnight. After the bound biotin-labeled CRO, AS411, or iSN04 and its captured proteins on the gel beads were washed multiple times with an IP lysis buffer (purchased from Thermo Scientific, Cat. No.: 87788), an SDS-PAGE protein loading buffer (purchased from Beyotime, Cat. No.: P0015) was added, and the mixture was heated to 100° C. and held for 10 min. After centrifugation, the supernatant was collected as a pull-down product. The pull-down product was detected by western blot assay.

## AS1411: DNA aptamer, GRO binding NCL, SEQ ID NO: 1: 5′-GGTGGTGGTGGTTGTGGTGGTGGTGG-3′
[1]
  toxicity to normal cells (cell apoptosis proportion): has no significant toxicity
[2]; A549, 200 nM, 3 h
  protein level of MDM2: neither AS1411, VH032, nor AS1411+VH032 can reduce the protein level of MDM2
[2]; A549, 1000 nM, 12 h
  protein level of MDM2: neither AS1411 nor AS1411+AS1411 can reduce the protein level of MDM2
[3]
  safety in clinical trials: good safety
[4]
  capture of MDM2: can capture NCL and MDM2 in a concentration-dependent manner
